Measurements published in US10953026B2, “N-acetyl mannosammine as a therapeutic agent” (THE UNITED STATES OF AMERICA, as represented by the …, priority 2007, dated 2021).
“And” between values parts separate entries of the source, which are not always exact repeats. Equal entries are not always repeated. “Also recorded” adds a separate entry of the source.

Legend:
cultured cells = conditions: incubation of cultured cells; cited from earlier work
podocalyxin = test: Immunoblots of kidney extracts with podocalyxin antibodies (sialylation status); type: in vivo, mouse; conditions: after ManNAc treatment, P2
Source text: (§1) A rabbit polyclonal antibody was custom prepared against a Gne/Mnk peptide comprising amino acids 588-607 ([…], SEQ ID NO:8), coupled to keyhole limpet hemocyanine, and affinity purified against the corresponding antigenic peptide (Covance). The following additional primary antibodies were commercially obtained: dystrophin (catalog no. ab15277; Abcam); α-dystroglycan (clone IIH6C4; Upstate Biotechnology); laminin-1 (catalog no. L9393; Sigma-Aldrich); podocalyxin (catalog no. PODX11-A; Alpha Diagnostic International); podocin (catalog no. P0372; Sigma-Aldrich); laminin β1 (catalog no. MAB1928; Millipore); desmin (catalog no. 1466-1; Epitomics); α-SMA (SPM332; GeneTex Inc.); PSA-NCAM (catalog no. MAB5324; Millipore); and β-actin (catalog no. AAN01; Cytoskeleton).
The lysates were sonicated and cleared by centrifugation (1000 g for 10 minutes), and the resulting supernatants were assayed for protein (BCA Protein Assay; Pierce Biotechnology). For the neuraminidase enzymatic treatments (FIG. 6E), protein homogenates (25 mg) were incubated for 30 min at 37° C. with 1 mU/mg of neuraminidase (catalog no. N6514; Sigma-Aldrich). Equal amounts of protein ([…]) were electrophoresed on 4%-12% Tris-Glycine gels (Novex; Invitrogen), and electroblotted onto […] Hybond ECL nitrocellulose membranes (GE Healthcare). […]

laminin-1 = test: Immunoblots of kidney extracts with laminin-1 antibodies; type: in vivo, mouse; conditions: Gne^+/+ and Gne^M712T/M712T littermates
Source text: as §1
(§2) Mouse tissues (age P2) were extracted, homogenized in CelLytic buffer consisting of a mild detergent, bicine buffer, and 150 mM NaCl (Sigma-Aldrich) supplemented with protease inhibitors (Complete Mini; Roche Applied Science). The lysates were sonicated and cleared by centrifugation (1000 g for 10 minutes), and the resulting supernatants were assayed for protein (BCA Protein Assay; Pierce Biotechnology). For the neuraminidase enzymatic treatments (FIG. 6E), protein homogenates (25 mg) were incubated for 30 min at 37° C. with 1 mU/mg of neuraminidase (catalog no. N6514; Sigma-Aldrich). […]

Gne^M712T/M712T mice [1] = test: Mouse histology (H&E) after ManNAc treatment; type: in vivo
Procedure: Mouse tissues were collected, formalin fixed (10%) and paraffin embedded. Tissue sections ([…]) were stained with H&E following standard procedures (American Histolabs) or subjected to immunohistochemistry with a variety of primary antibodies. Formalin-fixed tissues were deparaffinized in HistoClear II (National Diagnostics) and […] in a series of ethanol solutions. Antigen retrieval was performed for sections that were to be stained with antibodies against Gne/Mnk (by boiling 5 minutes in citric acid-based solution; Vector Laboratories) and against dystrophin (by boiling in 1 mM EDTA according the manufacturer's protocol; AbCam). The sections were blocked (2% BSA, 10% donkey serum, and 0.1% Triton X-100 in PBS) and incubated with primary antibodies (Gne/Mnk 1:50; laminin 1:25; dystrophin 1:50) overnight at 4° C., followed by incubation with the secondary antibody, Alexa Fluor 488-conjugated donkey anti-rabbit (1:500 in blocking solution) (Invitrogen). The sections were mounted in VECTASHIELD Mounting Medium (Vector Laboratories) and viewed and digitally imaged with a Zeiss Axiovert 200M microscope (Zeiss).
(§3) Breeding pairs of 6-week-old GneM^712T/+ mice were divided into 3 groups. Group I consisted of 9 GneM^712T/+ breeding pairs, who were administered untreated sterilized tap water. Group II consisted of 1 breeding pair of Gne^+/+ mice (wild-type control) and 6 GneM^712T/+ breeding pairs, who were administered water containing 1 mg/ml (˜0.2 g/kg/day) ManNAc (Sigma-Aldrich). […] Group III consisted of 1 Gne^+/+ breeding pair and 7 GneM^712T/+ breeding pairs, who were administered water supplemented with 5 mg/ml (˜1.0 g/kg/day) ManNAc. Water was changed twice weekly. Nursing females continued to be supplied with ManNAc. All mice were weaned from ManNAc at 21 days. Selected whole litters were euthanized at age P2, P6, and P19 for histological, genetic, biochemical, or ultrastructural analysis.

PSA-NCAM = test: Immunoblots with PSA-NCAM antibodies (sialylation status); type: in vivo, mouse
Source text: as §1
as §2, with “Biotechnology).” for “Biotechnology). For the neuraminidase enzymatic treatments (FIG. 6E), protein homogenates (25 mg) were incubated for 30 min at 37° C. with 1 mU/mg of neuraminidase (catalog no. N6514; Sigma-Aldrich).”
The degree of sialylation of two heavily sialylated marker proteins, PSA-NCAM and podocalyxin was evaluated. […]

Gne^M712T/M712T mice [2] = test: Electron microscopy of kidney glomeruli after ManNAc treatment; type: in vivo, mouse; conditions: age P19, versus untreated Gne^M712T/M712T
Procedure: Kidney samples were fixed overnight at 4° C. in 2% glutaraldehyde in 0.1 M cacodylate buffer (pH 7.4) and washed with cacodylate buffer. After postfixation with 1% OsO4 for 2 hours and a second wash with 0.1 M cacodylate buffer, the tissues were serially dehydrated in ethanol and embedded in Eponate 12 resin (Ted Pella). Thin sections (˜80 nm) were obtained using a Leica Ultracut UCT Ultramicrotome (Leica Microsystems), placed onto 400 mesh copper grids, and stained with saturated uranyl acetate in 50% methanol followed by lead citrate. The grids were viewed with a Philips 410 electron microscope (FEI Company) at 80 kV, and images were recorded on Kodak SO-163 film (Kodak).
as §3

Gne/Mnk epimerase = test: Gne-epimerase enzymatic assay in skeletal muscle of ManNAc-treated mice; type: in vivo, mouse
Procedure: as §3
Mouse kidney and skeletal muscle (quadriceps) tissues were homogenized and subjected to the Gne-epimerase enzymatic assay as previously described (11, 58). This assay was based on incubation with radiolabeled substrate (Uridine diphosphate N-acetyl glucosamine [1-^3H]; American Radiolabeled Chemicals Inc.) and detection of radiolabeled product ([^3H]ManNAc) upon separation of oligosaccharides by high-pH anion-exchange chromatography with pulsed amperometric detection (Dionex).

[3] = single dose of 0.142 g/kg/day; cited from earlier work
[4] = Tolerability and growth of ManNAc-treated mice; type: in vivo
Procedure: as §3

Gne^M712T/M712T mice [5] = test: Rescue by ManNAc feeding: survival of homozygous mutant pups (ManNAc in drinking water of breeding pairs); type: in vivo, mouse
Source text: Gne^M712T/M712T mice. Gne^M712T/M712T knockin mice were generated by targeting the M712T (ATG to ACG) mutation of exon 12 of the murine Gne gene (Gne, Uae1, GenBank NM_015828) (FIG. 2A). The nucleotide sequence for this Gne, Uae1 allele (GenBank NM_015828) without the mutation is shown below for easy reference (SEQ ID NO:3).
The mutant mice were maintained in the C57BL/6J background. Animals were housed in an accredited specific pathogen-free facility in accordance with accepted guidelines. Cages were ventilated in a temperature- and light-controlled environment (22° C., 30%-70% humidity, 12-hour light/12-hour dark cycle). The mice were fed irradiated chow (Prolab 5P75 Isopro 3000; PMI Nutrition International) and sterile water ad libitum. All euthanasia was performed by CO2 inhalation followed by cervical dislocation.
as §3
Differences between data groups were evaluated for significance using the 2-tailed Student's t test of unpaired data. For Mendelian distribution analysis, a goodness-of-fit (χ2) test was performed, while for comparisons of survival between treated and untreated mice of all genotypes (Gne^+/+, GneM^712T/+, and GneM^712T/M712T), a 2-tailed Fisher's exact test using a 2×3 table was employed. All data are presented as the mean±SD. A P value less than 0.05 was considered statistically significant.

Gne/Mnk protein = test: Immunoblots of muscle and kidney extracts with anti-Gne/Mnk antibodies; type: in vivo, mouse
Source text: as §1
Mouse tissues (age P2) were extracted, homogenized in CelLytic buffer consisting of a mild detergent, bicine buffer, and 150 mM NaCl (Sigma-Aldrich) supplemented with protease inhibitors (Complete Mini; Roche Applied Science). The lysates were sonicated and cleared by centrifugation (1000 g for 10 minutes), and the resulting supernatants were assayed for protein (BCA Protein Assay; Pierce Biotechnology). For the neuraminidase enzymatic treatments (FIG. 6E), protein homogenates ([…]) were incubated for 30 min at 37° C. with 1 mU/mg of neuraminidase (catalog no. N6514; Sigma-Aldrich). Equal amounts of protein ([…]) were electrophoresed on 4%-12% Tris-Glycine gels (Novex; Invitrogen), and electroblotted onto […] Hybond ECL nitrocellulose membranes (GE Healthcare). The membranes were blocked (10% fat-free milk) and incubated with primary antibodies followed by HRP-conjugated secondary antibodies (GE Healthcare). Results were visualized with ECL (ECL Western Blotting Detection Reagents; GE Healthcare) and exposure to CL-XPosure Film (Pierce Biotechnology). Densitometry was performed on the digital images obtained with a Kodak Image Station and software (PerkinElmer). The protein levels were normalized to those of β-actin to correct for differences in protein loading and/or transfer. […]

[6] = system: Gne-deficient mouse embryonic stem cells; conditions: growth medium supplemented with ManNAc; cited from earlier work
[7] = 3.5 months of age, ManNAc until P21
[8] = ~1.0 g/kg/d in drinking water, mice

## CC(=O)CCC(=O)N[C@@H]1C(O)O[C@H](CO)[C@@H](O)[C@@H]1O (stereo partly shown) [ManLev, N-levulinoylmannosamine]
Cultured cells
  incorporation of sialic acid analogs (SiaLev or SiaNAz) into cell surface glycoconjugates: incorporation of the downstream sialic acid analogs

## CC(=O)N[C@H]1[C@@H](O)[C@H](O)[C@@H](CO)O[C@H]1O [ManNAc, N-acetyl-D-mannosamine]
podocalyxin
  sialylation of podocalyxin in Gne^M712T/M712T kidney: markedly improved; also recorded: changed significantly
laminin-1
  laminin-1 intensity / pattern in kidney without or with ManNAc treatment: No difference
Gne^M712T/M712T mice [1]; [7]
  kidney histology of Gne^M712T/M712T survivor (urinary space and tubules): mild red blood cell infiltrations
  skeletal muscle histology of Gne^M712T/M712T survivor: no structural or inflammatory abnormalities
Gne^M712T/M712T mice [1]; age P6
  cystic tubular dilatations in cortex and medulla: fewer cystic tubular dilatations
  kidney histology compared with untreated Gne^M712T/M712T mice at P2: significant histological improvement
Gne^M712T/M712T mice [1]; age P6, treated Gne^M712T/M712T mice
  abnormalities in liver, heart or skeletal muscle tissues: no abnormalities
Gne^M712T/M712T mice [1]; age P6, versus untreated at P2
  red blood cell infiltrates in tubules and Bowman space: reduced red blood cell infiltrates; also recorded: less severe
PSA-NCAM; P2
  PSA-NCAM expression in muscle and kidney upon treatment: no change
PSA-NCAM; brain extracts, P=0.08
  increase of PSA-NCAM signal intensity in Gne^M712T/M712T brain versus untreated: 2%-28% and 2% to 28%
Gne^M712T/M712T mice [2]
  filtration slits / open slit diaphragms: greater number of open slit diaphragms; also recorded: improved
  overall integrity of the GBM: significantly improved
  podocyte foot processes (fusion, flattening, formation): less fusion and flattening; also recorded: improved
Gne/Mnk epimerase; homozygous mutant skeletal muscle, after ManNAc (19.4% untreated), n=7, P=0.05
  Gne activity in Gne^M712T/M712T muscle, of untreated Gne^+/+ mean: 31% (±8.4)
Gne/Mnk epimerase; wild-type skeletal muscle, after ManNAc, n=3, P=0.2
  Gne activity in Gne^+/+ muscle, of untreated Gne^+/+ mean: 114% (±19.7)
[3]
  safety in humans: evidence of the safety
[4]; ManNAc ~1 g/kg/d
  size of surviving Gne^M712T/M712T mice versus littermates: remained smaller than their littermates
[4]; ManNAc ~1.0 g/kg/day
  weight of surviving Gne^M712T/M712T mice relative to wild-type littermates: 70%-100%
[4]; [8]
  side effects: no side effects were attributed to the treatment
  tolerability: well tolerated
Gne^M712T/M712T mice [5]; 1 mg/ml (~0.2 g/kg/d), 7 litters
  pups died at age P1-P3 (number): 13
Gne^M712T/M712T mice [5]; 1 mg/ml (~0.2 g/kg/day) in drinking water, 51 offspring
  surviving homozygous Gne^M712T/M712T mice beyond age P3: no surviving homozygous
Gne^M712T/M712T mice [5]; 5 mg/ml (~1 g/kg/d), 13 litters
  homozygous mutant pups died at age P1-P3 (number): 14
Gne^M712T/M712T mice [5]; 5 mg/ml (~1.0 g/kg/day)
  Gne^M712T/M712T mice that died between P6 and P12, of the twelve that survived past P3: nine
Gne^M712T/M712T mice [5]; 5 mg/ml (~1.0 g/kg/day) in drinking water, 102 newborns, P=0.01 vs 1 untreated survivor
  Gne^M712T/M712T pups surviving beyond P3 (number): 12
Gne^M712T/M712T mice [5]; 5 mg/ml (~1.0 g/kg/day), ManNAc ceased at P21
  Gne^M712T/M712T mice that survived past P21: Two
Gne^M712T/M712T mice [5]; 6 months old, ManNAc until P21
  myopathic features of the surviving Gne^M712T/M712T mouse: no obvious myopathic features
Gne^M712T/M712T mice [5]; ManNAc administration
  survival beyond P3, share of Gne^M712T/M712T pups: 43%
Gne/Mnk protein; after ManNAc (32.1% untreated), relative to β-actin, P=0.006
  Gne/Mnk protein in Gne^M712T/M712T kidney compared with Gne^+/+ littermates: 62.2%
Gne/Mnk protein; after ManNAc (38.5% untreated), relative to β-actin, P=0.12
  Gne/Mnk protein in Gne^M712T/M712T muscle compared with Gne^+/+ littermates: 68.8%
Gne/Mnk protein; muscle and kidney, ManNAc feeding
  Gne/Mnk protein expression in Gne^M712T/M712T tissues versus untreated: increased
[6]
  sialylation of hyposialylated cells: became resialylated

## [N-]=[N+]=NCC(=O)N[C@@H]1C(O)O[C@H](CO)[C@@H](O)[C@@H]1O (stereo partly shown) [ManNAz, N-azidoacetyl-mannosamine]
Cultured cells
  incorporation of sialic acid analogs (SiaLev or SiaNAz) into cell surface glycoconjugates: incorporation of the downstream sialic acid analogs
